Broadly, the EC50 is the concentration giving half of the maximal effect.

Here are results for 6 molecules from patent US12139520B2 (priority 2020, dated 2024).

Numbered stars: 1 amine (or outer) side, 2 acyl side, 3 side chain; on linkers, the order of the positions; unused ones are H or OH. Bridge positions count the residues as written; N and C are the ends. Square brackets hold non-standard residues; d marks the D form. Peptide text beside a SMILES is read from it. * marks the point of attachment. C20 diacid = O=C(O)CCCCCCCCCCCCCCCCCCC(=O)*; γGlu = O=C(O)[C@H](CCC(=O)[*:2])N[*:1]; Hyp = O=C(O)[C@@H]1C[C@@H](O)CN1

In this assay the target is T1, hAMY3 receptor (Homo sapiens, UniProt O60896+P30988).
T1 sequence (P30988 25-474): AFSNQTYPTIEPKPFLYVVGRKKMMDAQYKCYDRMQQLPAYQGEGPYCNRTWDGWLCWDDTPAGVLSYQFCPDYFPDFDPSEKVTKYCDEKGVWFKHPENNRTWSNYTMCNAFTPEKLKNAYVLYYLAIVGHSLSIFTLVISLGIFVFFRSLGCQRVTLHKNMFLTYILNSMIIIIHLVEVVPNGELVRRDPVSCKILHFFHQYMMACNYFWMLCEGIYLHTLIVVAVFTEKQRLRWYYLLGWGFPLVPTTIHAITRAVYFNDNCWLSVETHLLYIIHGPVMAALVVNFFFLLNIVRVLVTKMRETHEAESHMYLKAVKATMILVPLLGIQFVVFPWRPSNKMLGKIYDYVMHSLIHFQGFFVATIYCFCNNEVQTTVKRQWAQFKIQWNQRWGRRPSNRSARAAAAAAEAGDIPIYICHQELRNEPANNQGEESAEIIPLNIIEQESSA
T1 sequence (O60896 24-148 partner): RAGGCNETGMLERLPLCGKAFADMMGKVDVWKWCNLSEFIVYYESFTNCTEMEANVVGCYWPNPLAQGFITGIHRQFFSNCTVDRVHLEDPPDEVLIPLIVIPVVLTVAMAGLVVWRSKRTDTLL
Briefly: cAMP assay for in vitro receptor activation, hAMY3-R. It counts as cell-based. Conditions: cAMP assay, hAMY3 receptor; read-out: hAMY3R EC50. A digest of the protocol: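 Accumulated cAMP was detected by time-resolved FRET one hour after reagent addition. Beforehand, hAMY3-R-overexpressing monoclonal cells (2000/well, DPBS, 0.05% casein, 0.5 mM IBMX) received graded doses of compound for 30 min at room temperature; human amylin served as positive control.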
As to `CC(C)C[C@H](NC(=O)[C@H](CCCNC(=N)N)NC(=O)[C@H](CCC(N)=O)NC(=O)[C@@H](NC(=O)[C@@H](NC(=O)[C@@H]1CSSC[C@H](NC(=O)CNC(=O)CC[C@H](NC(=O)CCCCCCCCCCCCCCCCCCC(=O)O)C(=O)O)C(=O)N[C@@H](CCCNC(=N)N)C(=O)N[C@@H](Cc2ccccc2)C(=O)NCC(=O)N[C@@H]([C@@H](C)O)C(=O)N1)[C@@H](C)O)C(C)C)C(=O)N[C@@H](C)C(=O)N[C@@H](CC(N)=O)C(=O)N[C@@H](Cc1ccccc1)C(=O)N[C@@H](CC(C)C)C(=O)N[C@@H](Cc1ccc(O)cc1)C(=O)N[C@@H](CCC(N)=O)C(=O)N[C@@H](Cc1ccccc1)C(=O)N[C@H](C(=O)N[C@@H](CC(=O)O)C(=O)N[C@@H](CCCCN)C(=O)N[C@@H](CC(=O)O)C(=O)N[C@@H](CCCCN)C(=O)N[C@@H](CC(=O)O)C(=O)N[C@@H](CC(N)=O)C(=O)N[C@H](C(=O)N[C@@H](C)C(=O)N1CCC[C@H]1C(=O)N[C@@H](CCCNC(=N)N)C(=O)N[C@H](C(=O)N[C@@H](CC(N)=O)C(=O)N[C@H](C(=O)NCC(=O)N1CCC[C@H]1C(=O)N[C@@H](CCC(N)=O)C(=O)NCC(=O)N[C@@H](Cc1ccc(O)cc1)C(N)=O)C(C)C)[C@@H](C)O)C(C)C)[C@@H](C)O` [compound 386] ({C20 diacid-γGlu}-GCRFGTCTVQRLANFLYQFTDKDKDNVAPRTNVGPQGY-NH2; disulfide 2-7), the EC50 stood at 39 pM. In the case of `CC[C@H](C)[C@H](NC(=O)[C@H](CCC(N)=O)NC(=O)[C@H](Cc1c[nH]cn1)NC(=O)[C@H](C)NC(=O)[C@H](CC(C)C)NC(=O)[C@H](CCCNC(=N)N)NC(=O)[C@H](CCC(N)=O)NC(=O)[C@@H](NC(=O)[C@@H](NC(=O)[C@@H]1CSSC[C@H](NC(=O)CN)C(=O)N[C@@H](CCCNC(=N)N)C(=O)N[C@@H](Cc2ccccc2)C(=O)NCC(=O)N[C@@H]([C@@H](C)O)C(=O)N1)[C@@H](C)O)C(C)C)C(=O)N[C@@H](Cc1ccc(O)cc1)C(=O)N[C@@H](CCC(N)=O)C(=O)N[C@@H](Cc1ccccc1)C(=O)N[C@H](C(=O)N[C@@H](CC(=O)O)C(=O)N[C@@H](CCCCN)C(=O)N[C@@H](CC(=O)O)C(=O)N[C@@H](CCCCN)C(=O)N[C@@H](CC(=O)O)C(=O)N[C@@H](CC(N)=O)C(=O)N[C@H](C(=O)N[C@@H](C)C(=O)N1CCC[C@H]1C(=O)N[C@@H](CCCNC(=N)N)C(=O)N[C@@H](CO)C(=O)N[C@@H](CCCCN)C(=O)N[C@H](C(=O)N[C@@H](CO)C(=O)N1CCC[C@H]1C(=O)N[C@@H](CCC(N)=O)C(=O)NCC(=O)N[C@@H](Cc1ccc(O)cc1)C(N)=O)C(C)C)C(C)C)[C@@H](C)O` [compound 174] (H-GCRFGTCTVQRLAHQIYQFTDKDKDNVAPRSKVSPQGY-NH2; disulfide 2-7; N-terminus assumed), the EC50 is 71 pM. With `CC[C@H](C)[C@H](NC(=O)[C@H](CCCCN)NC(=O)[C@@H](NC(=O)[C@H](CCCNC(=N)N)NC(=O)[C@@H]1CCCN1C(=O)[C@H](C)NC(=O)[C@@H](NC(=O)[C@H](CC(N)=O)NC(=O)[C@H](CC(=O)O)NC(=O)[C@H](CCCCN)NC(=O)[C@H](CC(=O)O)NC(=O)[C@H](CCCCN)NC(=O)[C@H](CC(=O)O)NC(=O)[C@@H](NC(=O)[C@H](Cc1ccccc1)NC(=O)[C@H](CCC(N)=O)NC(=O)[C@H](Cc1ccc(O)cc1)NC(=O)[C@@H](NC(=O)[C@H](CCC(N)=O)NC(=O)[C@H](Cc1c[nH]cn1)NC(=O)[C@H](C)NC(=O)[C@H](CC(C)C)NC(=O)[C@H](CCCNC(=N)N)NC(=O)[C@H](CCC(N)=O)NC(=O)[C@@H](NC(=O)[C@@H](NC(=O)[C@@H]1CSSC[C@H](NC(=O)CN)C(=O)N[C@@H](CCCNC(=N)N)C(=O)N[C@@H](Cc2ccccc2)C(=O)NCC(=O)N[C@@H]([C@@H](C)O)C(=O)N1)[C@@H](C)O)C(C)C)[C@@H](C)CC)[C@@H](C)O)C(C)C)[C@@H](C)O)C(=O)NCC(=O)N1CCC[C@H]1C(=O)N[C@@H](CCC(N)=O)C(=O)NCC(=O)N1C[C@H](O)C[C@H]1C(N)=O` [compound 111] (H-GCRFGTCTVQRLAHQIYQFTDKDKDNVAPRTKIGPQG[Hyp]-NH2; disulfide 2-7; N-terminus assumed), the EC50 came to 21 pM. `CC[C@H](C)[C@H](NC(=O)[C@H](CCC(N)=O)NC(=O)[C@H](Cc1c[nH]cn1)NC(=O)[C@H](C)NC(=O)[C@H](CC(C)C)NC(=O)[C@H](CCCNC(=N)N)NC(=O)[C@H](CCC(N)=O)NC(=O)[C@@H](NC(=O)[C@@H](NC(=O)[C@@H]1CSSC[C@H](NC(=O)[C@H](CCCCN)NC(=O)CC[C@H](NC(=O)CCCCCCCCCCCCCCCCCCC(=O)O)C(=O)O)C(=O)N[C@@H](CC(N)=O)C(=O)N[C@@H](Cc2ccccc2)C(=O)N[C@@H](C)C(=O)N[C@@H]([C@@H](C)O)C(=O)N1)[C@@H](C)O)C(C)C)C(=O)N[C@@H](Cc1ccc(O)cc1)C(=O)N[C@@H](CCC(N)=O)C(=O)N[C@@H](Cc1ccccc1)C(=O)N[C@H](C(=O)N[C@@H](CC(=O)O)C(=O)N[C@@H](CCCCN)C(=O)N[C@@H](CC(=O)O)C(=O)N[C@@H](CCCCN)C(=O)N[C@@H](CC(=O)O)C(=O)N[C@@H](CC(N)=O)C(=O)N[C@H](C(=O)N[C@@H](C)C(=O)N1CCC[C@H]1C(=O)N[C@@H](CCCNC(=N)N)C(=O)N[C@H](C(=O)N[C@@H](CCCCN)C(=O)N[C@H](C(=O)NCC(=O)N[C@@H](CO)C(=O)N[C@@H](CC(N)=O)C(=O)NCC(=O)N[C@@H](Cc1ccc(O)cc1)C(N)=O)C(C)C)[C@@H](C)O)C(C)C)[C@@H](C)O` [compound 378] ({C20 diacid-γGlu}-KCNFATCTVQRLAHQIYQFTDKDKDNVAPRTKVGSNGY-NH2; disulfide 2-7): the EC50 is 27 pM. Consider `CC[C@H](C)[C@H](NC(=O)[C@H](CCC(N)=O)NC(=O)[C@H](Cc1c[nH]cn1)NC(=O)[C@H](C)NC(=O)[C@H](CC(C)C)NC(=O)[C@H](CCCNC(=N)N)NC(=O)[C@H](CCC(N)=O)NC(=O)[C@@H](NC(=O)[C@@H](NC(=O)[C@@H]1CSSC[C@H](NC(=O)CN)C(=O)N[C@@H](CCCNC(=N)N)C(=O)N[C@@H](Cc2ccccc2)C(=O)NCC(=O)N[C@@H]([C@@H](C)O)C(=O)N1)[C@@H](C)O)C(C)C)C(=O)N[C@@H](Cc1ccc(O)cc1)C(=O)N[C@@H](CCC(N)=O)C(=O)N[C@@H](Cc1ccccc1)C(=O)N[C@H](C(=O)N[C@@H](CC(=O)O)C(=O)N[C@@H](CCCCN)C(=O)N[C@@H](CC(=O)O)C(=O)N[C@@H](CCCCN)C(=O)N[C@@H](CC(=O)O)C(=O)N[C@@H](CC(N)=O)C(=O)N[C@H](C(=O)N[C@@H](C)C(=O)N1CCC[C@H]1C(=O)N[C@@H](CCCNC(=N)N)C(=O)N[C@@H](CO)C(=O)N[C@@H](CCCCN)C(=O)N[C@H](C(=O)N[C@@H](CO)C(=O)N1CCC[C@H]1C(=O)N[C@@H](CCC(N)=O)C(=O)NCC(=O)N1C[C@H](O)C[C@H]1C(N)=O)[C@@H](C)CC)C(C)C)[C@@H](C)O` [compound 169] (H-GCRFGTCTVQRLAHQIYQFTDKDKDNVAPRSKISPQG[Hyp]-NH2; disulfide 2-7; N-terminus assumed), for which the EC50 is 63 pM. As to `CC[C@H](C)[C@H](NC(=O)[C@H](CCC(N)=O)NC(=O)[C@H](Cc1c[nH]cn1)NC(=O)[C@H](C)NC(=O)[C@H](CC(C)C)NC(=O)[C@H](CCCNC(=N)N)NC(=O)[C@H](CCC(N)=O)NC(=O)[C@@H](NC(=O)[C@@H](NC(=O)[C@@H]1CSSC[C@H](NC(=O)[C@H](CCCCN)NC(=O)CC[C@H](NC(=O)CCCCCCCCCCCCCCCCCCC(=O)O)C(=O)O)C(=O)N[C@@H](CC(N)=O)C(=O)N[C@@H](Cc2ccccc2)C(=O)N[C@@H](C)C(=O)N[C@@H]([C@@H](C)O)C(=O)N1)[C@@H](C)O)C(C)C)C(=O)N[C@@H](Cc1ccc(O)cc1)C(=O)N[C@@H](CCC(N)=O)C(=O)N[C@@H](Cc1ccccc1)C(=O)N[C@H](C(=O)N[C@@H](CC(=O)O)C(=O)N[C@@H](CCCCN)C(=O)N[C@@H](CC(=O)O)C(=O)N[C@@H](CCCCN)C(=O)N[C@@H](CC(=O)O)C(=O)N[C@@H](CC(N)=O)C(=O)N[C@H](C(=O)N[C@@H](C)C(=O)N1CCC[C@H]1C(=O)N1CCC[C@H]1C(=O)N[C@H](C(=O)N[C@@H](CCC(=O)O)C(=O)N[C@H](C(=O)NCC(=O)N[C@@H](CO)C(=O)N[C@@H](CC(N)=O)C(=O)NCC(=O)N1C[C@H](O)C[C@H]1C(N)=O)C(C)C)[C@@H](C)O)C(C)C)[C@@H](C)O` [compound 68] ({C20 diacid-γGlu}-KCNFATCTVQRLAHQIYQFTDKDKDNVAPPTEVGSNG[Hyp]-NH2; disulfide 2-7), the EC50 is 13 pM.
